Results reported in publication PMC12748266, “Testing antimicrobial peptides inhibiting protein synthesis in living E. coli and K. pneumoniae using bio-orthogonal non-canonical amino-acid tagging” (Frontiers in Microbiology, 2025).
≈ marks a conversion by molar mass, not a printed value. Where two headings read alike, the source gives them in different places. No end group written: not given here.

Experiments:
[1] = system: E. coli ATCC 25922; assay: microbe, parasite or virus in culture; format: cell-based, Escherichia coli; conditions: for MIC: read-out: MIC
Procedure: […] Each peptide, diluted at a starting concentration of 128 μM in supplemented M9 medium was added to the first column of wells of a 96-well round-bottom microplate (Sarstedt, Milan, Italy). Serially two-fold dilution (1:1) were performed across subsequent wells to a final volume of 50 μL. 50 μL of bacterial suspension (1 × 10^7 CFU/mL) were then added to each well, to a final bacterial concentration in each well to 5 × 10^6 CFU/mL per well. Untreated bacterial culture was used as growth control, while 100 μL of uninoculated supplemented M9 medium was used to verify the sterility of the medium. The plates were sealed with parafilm to minimize evaporation and incubated at 37 °C for 18 h. The minimum inhibitory concentration (MIC) was visually determined as the lowest peptide concentration in a well with no visible bacterial growth. Data are reported as the mode of at least three independent experiments.

[2] = system: E. coli ATCC 25922; assay: BONCAT protein synthesis inhibition after antimicrobial washout; format: cell-based, Escherichia coli; conditions: 10 or 30 min at MIC (time not given), then 30 min HPG
Procedure: We used a modified protocol from [Lindivat et al. (2020)]. Briefly, overnight cultures of E. coli ATCC 25922 or K. pneumoniae ATCC 700603, prepared as described above, were diluted to a final concentration of 5×10^6 CFU/mL and allowed to adjust for 30 min at 37 °C. The culture was then incubated at 37 °C in the dark for 10 or 30 min in the presence or absence of each peptide or antibiotic at various concentrations, with a final volume of 1 mL. At this point, only in certain specified experimental assays, the compounds were removed from the supernatant by centrifugation (16,000 × g for 5 min) and bacteria were washed and resuspended in fresh supplemented M9 medium. […] If not analysed immediately, the fixed samples were stored at 4 °C prior to performing the click chemistry reaction. […]
An overnight culture of E. coli ATCC 25922, or of K. pneumoniae ATCC 700603, prepared as described above, was diluted to a final concentration of 5 × 10^6 CFU/mL and allowed to adjust for 30 min at 37 °C under shaking. Membrane permeabilization of bacteria was then assessed by incubating bacteria at 37 °C, in a final volume of 1 mL, with varying concentrations of each peptide or antibiotic used for the BONCAT assay. […] The fluorescence of untreated cells was used to establish the gating for positive PI-stained cells. […]

[3] = Escherichia coli, ATCC25922, 18 h, supplemented M9 medium, 5 × 10^6 CFU/mL, 18 h, 37 °C, visual, mode of at least three experiments

**Q.** What does the source list for RRIRPRPPRLPRPRPR [Bac7(1–16)]?
**A.** MIC ([1]; Mueller Hinton, 2,5x10^5 CFU/mL, 18 h, 37 °C, mode of at least three experiments): 1 µM; MIC ([1]; Mueller Hinton, 5x10^6 CFU/mL, 18 h, 37 °C, mode of at least three experiments): 2 µM; MIC ([1]; supplemented M9 medium, 5 × 10^6 CFU/mL, 18 h, 37 °C, visual, mode of at least three experiments): 1 µM

**Q.** How did the “Reduction in fluorescence after washout” value [2] turn out when `CO[C@H]1/C=C/O[C@@]2(C)Oc3c(C)c(O)c4c(O)c(c(/C=N/N5CCN(C)CC5)c(O)c4c3C2=O)NC(=O)/C(C)=C\C=C\[C@H](C)[C@H](O)[C@@H](C)[C@@H](O)[C@@H](C)[C@H](OC(C)=O)[C@@H]1C` [RIF, Rifampicin] was run?
**A.** The value was “over 20%”.

**Q.** And the MIC [1, 3]?
**A.** The MIC was 2 µM (≈ 1.65 µg/mL).

**Q.** “RRIRPRPPRLPRPRPRPLPFPRPGPRPIPRPLPFP [Bac7(1–35)]” was tested. Which MIC ([1]; ATCC 25922, 18 h) did it give?
**A.** Its MIC is 1 µM.

**Q.** Which “Reduction in fluorescence after washout” value [2] does the source give for `O=C(N[C@H](CO)[C@H](O)c1ccc([N+](=O)[O-])cc1)C(Cl)Cl` [CHL, Chloramphenicol] here?
**A.** Its value is “lost most of its inhibitory effects once removed from the medium”.

**Q.** What about the MIC ([1]; Escherichia coli, ATCC25922, 18 h, Mueller Hinton, 2,5x10^5 CFU/mL, 18 h, 37 °C, mode of at least three experiments) of the same compound?
**A.** The MIC was 16 µM (≈ 5.17 µg/mL).

**Q.** And the MIC ([1]; Escherichia coli, ATCC25922, 18 h, Mueller Hinton, 5x10^6 CFU/mL, 18 h, 37 °C, mode of at least three experiments)?
**A.** The MIC was 64 µM (≈ 20.7 µg/mL).

**Q.** What about the MIC [1, 3] of the same compound?
**A.** Its MIC is 32 µM (≈ 10.3 µg/mL).

**Q.** What about the “Fold increase in MIC on 20-fold increase in cell density” value ([1]; MHB, 5×10^6 vs 2,5×10^5 CFU/well) of the same compound?
**A.** Its value is 4-8 fold.
